Laboratory results as given in patent US9303006B2, “Line leaf inula flower lactone A and methods for preparing and using the same for treating myocarditis” (SHANXI ZHENDONG PILOT BIOLOGICAL SCIENCE AND TECHNOLOGY …, priority 2012, dated 2016).
Values joined by “and” are separate entries in the source; they are usually repeats but may differ in a detail not shown here. Equal entries are not always repeated. “Also recorded” adds a separate entry of the source.

How the values were obtained:
[1] = tested on: mouse EAM model; assay: Mouse experimental autoimmune myocarditis (EAM) model: HW/BW, cardiac morphology, HE pathology; assay type: in vivo, mice
Protocol: (§1) Pig myocardial myosin (PCM, 1 mg/ml; Sigma, St. Louis, Mo.) (Sigma), and equal volume of Freund's Complete Adjuvant (FCA, Sigma St. Louis, Mo.), were in an uniform emulsification and mixed into a homogeneous emulsion, where the mycobacterium tuberculosis H37Ra bead (Difco, Detroit, Mich.) with final concentration at 5 mg/ml. In the 0th day, the emulsion 0.2 ml (including antigen 200 μg) was taken and subcutaneously administered at the bilateral inguinal and multiple points under the armpit in mice. Seven days after the first immunization, the same procedure was performed to strengthen the immune once. The animals were divided into groups, each group had six mice.
(§2) Beginning on the day of immunity, the mice were given line leaf inula flower lactone A continuously for 21 days. Two dosing methods were applied:
(§3) (1) intraperitoneal injection: Line leaf inula flower lactone A of Example 1 was dissolved in phosphate buffer solution (PBS) (containing 5% DMSO (dimethyl sulfoxide)). The 4 concentration gradients were at 2.5 mg/kg/d^−1 (2.5 mg/kg every time, once a day); 5 mg/kg/d^−1; 10 mg/kg/d^−1; and 20 mg/kg/d^−1.
(2) Intragastric Administration: Line leaf inula flower lactone A suspended in 0.5% CMC-Na (carboxymethyl cellulose sodium). The 3 concentration gradients were at: 10 mg/kg/d^−1; 50 mg/kg/d^−1; and 100 mg/kg/d^−1.
(§4) Mice after 21 days were killed by taking off the neck, shearing heart, weighing and take photos, pathological section (HE hematoxylin-eosin staining), cytokine TNF-α change.
(1) heart and body weight ratio (HW/BW). Myocarditis in mice after the onset of the myocarditis should have the heart weight/body weight ratio larger than the model group, if the medication was effective, the ratio should be small and close to the normal group.
(2) Cardiac morphology. After the onset of the EAM in mice, the heart appeared swelling and pale as the result of the infiltration by inflammatory cells. Intraperitoneal injection of the line leaf inula flower lactone A (XX-3) were given at various dosages.
(4) pathology (conventional HE staining). Mice were killed by taking off the neck, heart was taken out, and residual blood was removed. Each heart was fixed in 10% formaldehyde, paraffin embedded, continuous sliced with conventional HE staining and observed under the microscope. The model group had visible focal myocardial cell degeneration necrosis, cytoplasm red dye, nuclear disappeared, with some muscle dissolved, interstitial broadening, and various inflammatory cell infiltration.

[2] = tested on: TNF-α; assay: Serum TNF-α in the mouse EAM model; assay type: in vivo, mice
Protocol: as §1, §2, §3, §4
(3) TNF-α change. TNF-α was an inflammation factor that played an important role in the onset of the EAM. […]

[3] = tested on: coxsackie B group virus B3 type Nancy strains (CVB3); assay: CVB3-infected mice myocardial virus measured on cell model at 7th day (heart homogenate 1:10, cell lesions); assay type: in vivo, Balb/c male mice; conditions: for 1:10 (cell lesions from myocardial homogenate) / Lesions rate % / Average disease rate % / Reduce lesions: 7th day; for 1:10 (cell lesions from myocardial homogenate) / Lesions rate %: individual mice NO 1-5, listed as leaves Inula flowers lactone A; for Average disease rate %: virus control 90%; for Reduce lesions: vs virus control
Protocol: (§5) The thin Leaf inula flower lactone A compound from Example 1 was used; a viral strain: coxsackie B group virus B3 type Nancy strains (CVB3) was used at a virus infection dose of 10LD50 virus 0.2 ml through abdominal cavity infection in mice. The animals used were Balb/c male mice, 13 g to 15 g, from Shanghai West S&P-Bick Experimental Animals Co., Ltd. with animal number: qualified SCXX (Shanghai), 2008-0016. The positive control medicine was human recombinant interferon alpha 2 a, YinTeFen, Shenyang Junior Pharmaceutical co., Ltd., Product batch number 20090708.
(§6) Preparation and administration: the line leaf inula flower lactone A compound was weighed, ground, and suspended in 0.5% CMC (carboxymethyl cellulose) mixture at 10 mg/ml solution. Oral administration of the medicine was conducted for once per day, every time at 0.5 ml, for 7 days.
(§7) The experimental groups included (1) the viral infection group, each group had 10 mice, were given 0.5% CMC solution and virus.
(§8) Another group of 10 mice, with infection, was weighed after 7 days. Four mice were taken to detect cardiac function, and killed and dissected for collecting blood to test neutralizing antibody, heart weighing calculation index, and grinding the heart, with three resistance MEM fluid containing 10%. 1:10 dilution, on the cell model to detect coxsackie virus in mice drop degree (to observe the myocardial cell lesions) separation of virus infection.

[4] = tested on: coxsackie B group virus B3 type Nancy strains (CVB3); assay: Life protection (survival time) of mice infected by CVB3; assay type: in vivo, Balb/c male mice; conditions: for Survival time M: CVB3-infected mice, observed 14 days; for prolonged survival time, extended percentage: vs virus control
Protocol: as §5, §6, §7
Test process was that after virus infection in mice (except the normal control group) for 2 hours, total drug delivery was performed 7 days in a row, observation was conducted until 14 days. The incidence and deaths were recorded every day, and the average survival days prolongation of life were calculated with p value calculation.

[5] = tested on: coxsackie B group virus B3 type Nancy strains (CVB3); assay: Serum neutralizing antibody in CVB3-infected mice; assay type: in vivo, Balb/c male mice; conditions: oral treatment; concentration-response relationship by 7 days
Protocol: as §5, §6, §7
Another group of 10 mice, with infection, was weighed after 7 days. Four mice were taken to detect cardiac function, and killed and dissected for collecting blood to test neutralizing antibody, heart weighing calculation index, and grinding the heart, with three resistance MEM fluid containing 10%. […]

[6] = tested on: CVB3-Infected Mice; assay: Live body weight in CVB3-infected mice; assay type: in vivo, Balb/c male mice
Protocol: as §5, §6, §7, §8

In the case of C=C1C(=O)O[C@H]2C[C@@H](C)[C@@H]3[C@@H](OC(C)=O)C[C@H](O)[C@@]3(C)[C@@H](OC(C)=O)[C@H]12 [line leaf inula flower lactone A], the “curative effect on EAM in mice” value ([1]; 100 mg/kg/d intragastric administration) is reported as “has certain curative effect”, the “pathology (HE staining), efficacy” value ([1]; intragastric administration at 100 mg/kg·d^−1) is reported as “worked the best” and the “Cardiac morphology, effect on the EAM model” value ([1]; intragastric administration, 21 days, FIG. 3) is reported as “has curative effect on the EAM model”. For the same compound, the “Cardiac morphology, efficacy” value ([1]; intraperitoneal injection 20 mg/kg/d^−1, 21 days) was “worked the best efficacy”, the “heart and body weight ratio (HW/BW)” value ([1]; intraperitoneal injection 20 mg/kg/d^−1, 21 days, FIG. 1) was “changed HW/BW significantly” and the “pathology (HE staining), efficacy” value ([1]; intraperitoneal injection at 20 mg/kg·d^−1) was “worked the best”. The “occurrence of the EAM in mice” value ([1]; intraperitoneal injection of 20 mg/kg/d) was “prevents the occurrence of the EAM in mice”, the “most effective dose (cardiac morphology)” value ([1]; intraperitoneal injection, 21 days) was 20 mg/kg/d^−1 and the “Cardiac morphology, degree and extent of the lesion vs model and solvent control groups” value ([1]; intraperitoneal injection, various dosages (2.5-20 mg/kg/d^−1), 21 days, FIG. 2) was “various degrees of improvement”. For the same compound, the “pathology (HE staining), myocardial inflammation” value ([1]; various dosages, vs model and solvent control groups, FIG. 5) was “had curative effect on myocardial inflammation in mice”, the “levels of serum TNF-α vs model group” value ([2]; intraperitoneal injection 20 mg/kg, 21 days, #P<0.05) was “the difference was significant” and the “levels of serum TNF-α vs model group” value ([2]; intraperitoneal injection, 21 days after first immunization, FIG. 4) was “decreased”. For the same compound, the “1:10 (cell lesions from myocardial homogenate)” value ([3]; 10 mg/kg oral) was “+ (: + 50%); also recorded: ++ (++ 100%)”, the Lesions rate % ([3]; 10 mg/kg oral) was 50% (4×) and 100% and the “Average disease rate %” value ([3]; 10 mg/kg oral) was 60%. For the same compound, the Reduce lesions ([3]; 10 mg/kg oral) was 33.33%, the “1:10 (cell lesions from myocardial homogenate)” value ([3]; 50 mg/kg oral) was “± (plus or minus: 0%); also recorded: + (: + 50%); also recorded: ++ (++ 100%)” and the Lesions rate % ([3]; 50 mg/kg oral) was 25% and 50% (3×) and 100%. For the same compound, the “Average disease rate %” value ([3]; 50 mg/kg oral) was 55%, the Reduce lesions ([3]; 50 mg/kg oral) was 38.89% and the “1:10 (cell lesions from myocardial homogenate)” value ([3]; 100 mg/kg oral) was “± (plus or minus: 0%); also recorded: + (: + 50%)”. For the same compound, the Lesions rate % ([3]; 100 mg/kg oral) was 25% (2×) and 50% (3×), the “Average disease rate %” value ([3]; 100 mg/kg oral) was 40% and the Reduce lesions ([3]; 100 mg/kg oral) was 55.56%. For the same compound, the “effect on the coxsackie virus replication in the myocardial” value ([3]; CVB3-infected mice, oral treatment) was “inhibitory effect”, the “Survival time M” value ([4]; 10 mg/kg oral once per day for 7 days) was 8.9 days and the “prolonged survival time, extended percentage” value ([4]; 10 mg/kg oral) was 21.92%. For the same compound, the “Survival time M” value ([4]; 50 mg/kg oral once per day for 7 days) was 9 days, the “prolonged survival time, extended percentage” value ([4]; 50 mg/kg oral) was 23.29% and the “Survival time M” value ([4]; 100 mg/kg oral once per day for 7 days) was 9.4 days. The “prolonged survival time, extended percentage” value ([4]; 100 mg/kg oral) was 28.77%, the “activity against coxsackie virus” value ([4]; summary statement, concentration-response correlation) was “has activity against coxsackie virus” and the “effect on neutralizing antibodies in the CVB3-infected mice” value [5] was “improved the neutralizing antibodies”. The “Live body weight M ± SD” value ([6]; 10 mg/Kg, 4 days) was 15.23 ± 1.01, the “Live body weight M ± SD” value ([6]; 10 mg/Kg, 8 days) was 15.59 ± 0.89 and the “Live body weight M ± SD” value ([6]; 10 mg/Kg, 14 days) was 17.92 ± 1.10. The “Live body weight M ± SD” value ([6]; 10 mg/Kg, Before) was 14.59 ± 0.71, the “Live body weight M ± SD” value ([6]; 50 mg/Kg, 4 days) was 15.14 ± 0.68 and the “Live body weight M ± SD” value ([6]; 50 mg/Kg, 8 days) was 16.03 ± 0.96. The “Live body weight M ± SD” value ([6]; 50 mg/Kg, 14 days) was 18.33 ± 0.80, the “Live body weight M ± SD” value ([6]; 50 mg/Kg, Before) was 14.58 ± 0.49 and the “Live body weight M ± SD” value ([6]; 100 mg/Kg, 4 days) was 15.13 ± 0.88. For the same compound, the “Live body weight M ± SD” value ([6]; 100 mg/Kg, 8 days) was 16.1 ± 1.05, the “Live body weight M ± SD” value ([6]; 100 mg/Kg, 14 days) was 18.21 ± 0.86 and the “Live body weight M ± SD” value ([6]; 100 mg/Kg, Before) was 14.57 ± 0.55.
